Among the data in publication PMC12040169 (PLOS Biology, 2025) are viability values, retold here.

The nature of one data set: in vitro. The following applies: human, hela cells, % viability.
As usually defined, the viability is a read-out of living cells in per cent, often relative to untreated cells. Consider `COc1ccc2c(CC(=O)Nc3sccc3C(N)=O)coc2c1` [CBK295137], for which the viability at 28.5 h, 10 µM was found to be 101%. Take `Cc1ccc(C(=O)NCc2ccc(-c3n[nH]cc3C(=O)N(C)c3ccccc3)cc2)cc1` [CBK285600]: the viability at 28.5 h, 10 µM turned out to be 98.7%. As to `Cc1ccc(S(=O)(=O)N2CCN(C(c3ccccc3)c3ccccc3)CC2)cc1[N+](=O)[O-]` [CBK293949], the viability at 28.5 h, 10 µM stood at 103%. Consider `CC(CN1CCCCC1)OC(=O)COc1ccc(F)cc1` (centres unmarked) [CBK058066C], for which the viability at 28.5 h, 10 µM stood at 93.6%.

As to `O=C(NCCCN1CCOCC1)C(=O)NC1CC1` [CBK267243], the viability at 28.5 h, 10 µM was found to be 101%. As for `CNC(=O)C1(Cc2ccc(-c3cccc(C)c3)cc2)CCN(C(=O)CC(C)(C)C)CC1` [CBK285923], the viability at 28.5 h, 10 µM is 86.4%. Consider `Cc1ccc(CN2CCC3(CCCNC3=O)CC2)cc1` [CBK284822], for which the viability at 28.5 h, 10 µM stood at 90.6%. In the case of `O=C1CC(c2cc(F)ccc2F)c2c(-c3ccc(Cl)cc3)n[nH]c2N1` (centres unmarked) [CBK288000], the viability at 28.5 h, 10 µM stood at 110%. As to `O=C(Oc1cccc(-c2cnc3ccccc3n2)c1)c1ccc(S(=O)(=O)N2CCCCC2)cc1` [CBK267785], the viability at 28.5 h, 10 µM was found to be 104%. Take `CC(C)c1nc(NCc2nnc3n2CCC3)nc(N(C)C)n1` [CBK305117]: the viability at 28.5 h, 10 µM amounted to 99.5%. As for `Cc1ccccc1OCc1nnc(SCC(=O)c2ccc3c(c2)Cc2ccccc2-3)n1C` [CBK265829], the viability at 28.5 h, 10 µM is 93.9%.

With `CC(=O)Nc1cccc(C(=O)OCC(=O)N2CCCCC2C)c1` (centres unmarked) [CBK305868], the viability at 28.5 h, 10 µM is 76.6%.

Turning to `CCn1c(C)nnc1SCCNc1cc(C)nc2ccnn12` [CBK306607], the viability at 28.5 h, 10 µM was 99.7%. On to `CCCC(C)c1cn(CCc2cc(O)nc(C)n2)nn1` (centres unmarked) [CBK306871], for which the viability at 28.5 h, 10 µM was found to be 93.8%. Consider `CCn1cc(C(=O)O)c(=O)c2cnc(N3CCN(C(=S)NC(=O)c4cccs4)CC3)nc21` [CBK265753], for which the viability at 28.5 h, 10 µM was determined as 95.7%. As to `COc1ccccc1OCC(=O)N1CCN(C(=O)c2ccco2)CC1` [CBK144466], the viability at 28.5 h, 10 µM stood at 86.8%.

As to `O=C(NCCN1CCCCC1)C1CC(=O)N(CCc2ccccc2)C1` (centres unmarked) [CBK305986], the viability at 28.5 h, 10 µM was determined as 91.7%. Same read-out and setting: the value for `O=C(Nc1ccc(C(=O)O)cc1)/C(=C\c1ccco1)NC(=O)c1ccccc1Cl` [CBK263726] was 113%. For the compound `Cc1cc(N2C(=O)NS(=O)(=O)c3cccnc32)ccc1F` [CBK288461], the viability at 28.5 h, 10 µM was found to be 90.5%.

Take `Cc1ncsc1CCOc1nccc(C(F)(F)F)n1` [CBK115798]: the viability at 28.5 h, 10 µM came to 80.3%.

For `Cn1cccc1CN1CCCC(n2c(=O)oc3ccccc32)C1` (centres unmarked) [CBK285111], the viability at 28.5 h, 10 µM is 103%.

Regarding `COc1ccccc1N1CCN(CC2CN(c3ccccc3)c3ccccc3O2)CC1` (centres unmarked) [CBK066872C], the viability at 28.5 h, 10 µM was determined as 84.7%. With `CC(C)(C)c1ccc(O)c(NC(=S)NC(=O)c2cccc(OCc3ccccc3)c2)c1` [CBK269018], the viability at 28.5 h, 10 µM came to 97.3%. As for `Cc1nc(COc2ccc(C(=O)N3CCCC(C(N)=O)C3)cc2)no1` (centres unmarked) [CBK305660], the viability at 28.5 h, 10 µM came to 84.2%. As for `COc1cc2c(cc1OC)C1c3ccccc3NC(c3ccccc3F)N1CC2` (centres unmarked) [CBK286311], the viability at 28.5 h, 10 µM came out at 98.9%. Take `O=S(=O)(Cc1ccccc1)Nc1nnc(C(F)(F)F)s1` [CBK045539]: the viability at 28.5 h, 10 µM was found to be 84.8%. Regarding `Cc1ccc(CN(Cc2ccco2)CC(O)COCc2ccco2)s1` (centres unmarked) [CBK304610], the viability at 28.5 h, 10 µM came out at 96.7%. Regarding `CCC(=O)Oc1ccc(C(=O)N2CCN(c3ccccc3F)CC2)cc1` [CBK307538], the viability at 28.5 h, 10 µM came to 103%.

As to `O=C(c1c(F)cccc1F)N1CCCC2(CCN(Cc3ccccc3)C2)C1` (centres unmarked) [CBK136886], the viability at 28.5 h, 10 µM was found to be 108%. In the case of `CCCC/C=C/c1cncc(N(C)CCN(C)C)n1` [CBK065374], the viability at 28.5 h, 10 µM turned out to be 91.1%. On to `N#Cc1ccc(CSc2cccc(F)c2)cc1` [CBK002918], for which the viability at 28.5 h, 10 µM was found to be 109%. Take `COc1ccc(-n2cnnn2)cc1` [CBK001946]: the viability at 28.5 h, 10 µM turned out to be 99%.

Take `O=C(CN(c1ccc(Cl)cc1)S(=O)(=O)c1ccccc1)Nc1ccc(F)cc1` [CBK264013]: the viability at 28.5 h, 10 µM came to 90.5%. For `CCCc1cc(=O)[nH]c(N/C(=N/C(=O)c2ccccc2)Nc2ccc3c(c2)OCCO3)n1` [CBK266485], the viability at 28.5 h, 10 µM was found to be 99.5%. For `Cn1cc(C2CCCN2C(=O)Cc2csc3ccccc23)cn1` (centres unmarked) [CBK305066], the viability at 28.5 h, 10 µM was found to be 102%. Turning to `COC(=O)CCc1ccc(S(=O)(=O)N2CCCN(Cc3c[nH]c4ccc(OC)cc34)CC2)cc1` [CBK062985], the viability at 28.5 h, 10 µM is 98.1%. In the case of `O=C(Nc1nc(-c2cccnc2)cs1)c1cccc(N2C(=O)CCC2=O)c1` [CBK287564], the viability at 28.5 h, 10 µM came out at 108%. Turning to `CCc1ccc(-c2cc3c(=O)[nH]nc(S)n3n2)cc1` [CBK288485], the viability at 28.5 h, 10 µM is 124%. For the compound `Cc1nc(CN2CCCC(NCc3cccc(C(N)=O)c3)C2)no1` (centres unmarked) [CBK304929], the viability at 28.5 h, 10 µM stood at 94.2%. As to `O=[N+]([O-])c1ccc(N2CCN(CCO)CC2)cc1NCc1ccc(Cl)cc1` [CBK042201], the viability at 28.5 h, 10 µM was 99.6%. Take `Cn1ncc2c(NCC(=O)N3CCNCC3)nc(C(C)(C)C)nc21` [CBK307702]: the viability at 28.5 h, 10 µM worked out at 120%.

For `Cn1nc2c(c1O)CCCC2` [CBK089897], the viability at 28.5 h, 10 µM came to 102%. Same read-out and setting: the value for `Cc1cnc2c(C(=O)Nc3cccc(CCc4ccncc4)c3)cnn2c1` [CBK285558] was 106%. In the case of `CN1CCN(CC(=O)C(C#N)c2ccccc2)CC1` (centres unmarked) [CBK269270], the viability at 28.5 h, 10 µM came out at 87.7%. On the same count and under the same terms, the value for `Cc1ccc(-c2nnc(CNC(=O)Cc3ccc(F)cc3)o2)s1` [CBK284645] was 91.3%; that for `N#Cc1ccc(CN2CCCN(S(=O)(=O)c3ccc(C(=O)c4ccccc4)cc3)CC2)cc1` [CBK062962] was 89.9%. Take `CC(C)(C)N1C(=O)c2ccc(C(=O)NNC(=O)C(C#N)C(=O)c3ccc4c(c3)C(=O)N(C(C)(C)C)C4=O)cc2C1=O` (centres unmarked) [CBK268652]: the viability at 28.5 h, 10 µM came out at 90.3%. In the case of `O=C1N[C@@H]2CCN(C(=O)Cc3ccc(O)cc3)C[C@@H]2C/C=C/CCOc2ccccc21` [CBK292043], the viability at 28.5 h, 10 µM is 103%. As for `C[C@H]1[C@@H]2[C@@H](O)C([C@H](C)C(=O)NC3CC3)CC[C@@]2(C)CC[C@@H]1NC(=O)C1CC1` (some centres unmarked) [CBK289442], the viability at 28.5 h, 10 µM amounted to 87.1%. Regarding `CN1CCC2(CC1)CC(NC(=O)c1ccco1)c1ccccc1O2` (centres unmarked) [CBK283804], the viability at 28.5 h, 10 µM was found to be 96.6%. Consider `COc1cc(Nc2cc(-n3nc(C)cc3C)ncn2)cc(OC)c1OC` [CBK288594], for which the viability at 28.5 h, 10 µM was found to be 93.2%. With `O=C(C1C2CCCCC21)N1CCC(c2nnc3n2CCCCC3)CC1` (centres unmarked) [CBK283351], the viability at 28.5 h, 10 µM is 95.2%. Same read-out and setting: the value for `CCCCN(C(C)=O)c1c(CC)nc2ccc(C(=O)N(C)CCN(C)C)cn12` [CBK145739] was 91.7%; that for `CCOC(=O)N1CCC(NS(=O)(=O)c2cc(Cl)sc2Cl)CC1` [CBK045462] was 86.7%; that for `CC1=C(CCN2CCCC(CO)C2)C(C)(C)CCC1` (centres unmarked) [CBK020827] was 88.2%. `CCc1nn(CC(=O)OC(C)C)c(=O)c2cc3sccc3n12` [CBK284076]: the viability at 28.5 h, 10 µM turned out to be 75.3%.

Take `CCN1CCN(c2cc(N3CCN(C(=O)COc4ccccc4F)C(C)C3)c([N+](=O)[O-])cc2F)CC1` (centres unmarked) [CBK267513]: the viability at 28.5 h, 10 µM is 100%. For `COc1nc2ccn(CCC3CCOC3)c(=O)c2cc1C#N` (centres unmarked) [CBK307343], the viability at 28.5 h, 10 µM amounted to 101%.

As to `O=C(O)c1ccc(Nc2ncnc3c2oc2ccccc23)cc1` [CBK269825C], the viability at 28.5 h, 10 µM is 92%. Regarding `CCCC/C=C\c1nccnc1OCCn1cccc1` [CBK106891], the viability at 28.5 h, 10 µM came out at 104%. Consider `O=C(NCCc1cc2ccccc2[nH]1)Nc1cccc2ccccc12` [CBK269246], for which the viability at 28.5 h, 10 µM amounted to 106%.

For the compound `CC(C)NC(=O)C1CCN(c2nc3ccccc3n2C)CC1` [CBK283986], the viability at 28.5 h, 10 µM was 87.5%. Consider `CN(C)CCN(Cc1ccncc1)Cc1ccc(F)cc1F` [CBK283094], for which the viability at 28.5 h, 10 µM turned out to be 98.2%.

Turning to `COc1ccccc1NC(=O)c1ccc(OC(C)C(=O)O)cc1` (centres unmarked) [CBK266109], the viability at 28.5 h, 10 µM was 106%. Take `NS(=O)(=O)c1ccccc1NC(=O)NC1CCCCC1` [CBK016919]: the viability at 28.5 h, 10 µM is 93.4%. For the compound `Fc1ccccc1CN1CCC(Oc2nccnc2OCc2cccnc2)CC1` [CBK083157T], the viability at 28.5 h, 10 µM was 91.8%. The same measure, in the same setting: the value for `CCC1(CC)OC(N[C@@H](C)c2ccc(Br)cc2)=NC1=O` [CBK126665] was 102%; that for `Cc1cc(C)n(CC(=O)N2CCCC(c3cc4cccnc4[nH]3)C2)n1` (centres unmarked) [CBK284928] was 96.2%; that for `CC1CCC(C(N)=O)CN1C(=O)c1csc(COc2ccc(Cl)cc2)n1` (centres unmarked) [CBK304948] was 102%.

On to `Cc1cccc(NC(=O)CCC(=O)N/N=C/c2cccnc2)c1` [CBK262023], for which the viability at 28.5 h, 10 µM amounted to 103%. Still for that read-out and setting: the value for `CCNC(=O)C1(Cc2ccc(-c3cccs3)cc2)CCN(C(=O)Cc2ccccc2)CC1` [CBK285795] was 115%.

On to `Cc1c(C2CC(C(F)(F)F)n3nccc3N2)cnn1C` (centres unmarked) [CBK288015], for which the viability at 28.5 h, 10 µM turned out to be 93.9%. On to `O=C(Nc1nc2ccc(Br)cc2s1)C1CC2CCC1C2` (centres unmarked) [CBK026397], for which the viability at 28.5 h, 10 µM amounted to 88.8%. Take `Nc1ncncc1-c1noc([C@@H]2CCCN2C2CCOCC2)n1` [CBK288932]: the viability at 28.5 h, 10 µM was determined as 90.7%. On to `COc1ccc(Cl)cc1NC(=O)CSc1nc2cc3ccccc3cc2[nH]1` [CBK268410], for which the viability at 28.5 h, 10 µM is 82.1%. Same read-out and setting: with `CC(C)c1ccc(CNC(=O)c2ccc(-c3ccoc3)nc2)cc1` [CBK156292] the figure was 91.4%; with `O=C(O)CCC(=O)Nc1cccc(C(=O)Nc2cccc(Cl)c2)c1` [CBK296977], 89.8%; with `COc1ccccc1/C=C(/NC(=O)c1ccc(Cl)cc1Cl)C(=O)O` [CBK263998], 98.4%. The same measure, in the same setting: the value for `O=C(CSc1nnc(Cc2ccccc2)n1-c1ccc(Cl)cc1)Nc1cc(Cl)ccc1O` [CBK269061] was 99.9%.

Staying with this data set, now noted: human, hela cells, % viability, bulk resorufin, single well.
Consider `O=C(COc1ccc(C=C2C(=O)NC(=O)NC2=O)cc1)NCc1ccccc1` [CBK263736], for which the viability at 28.5 h, 10 µM was found to be 93.3%.
